How the values were obtained:
Ba/F3 (N-Ras G12D) = assay: Proliferation inhibitory activity, Ba/F3 N-Ras G12D; type: cell-based
Method: (§1) The inhibitory activities of the compounds of the present disclosure against the proliferation of the mt-NRAS (G12D) Ba/F3 and OCI-AML3 (mt-NRAS) cell lines were measured and the GI50 values thereof were calculated.

OCI-AML3 (N-Ras Q61L) = assay: Proliferation inhibitory activity, OCI-AML3; type: cell-based, human
Method: as §1

GCK = biological target: T1, GCK (Homo sapiens, UniProt Q12851); assay: Inhibitory activity against GCK kinase (IC50); type: biochemical
T1 sequence (Q12851 1-820): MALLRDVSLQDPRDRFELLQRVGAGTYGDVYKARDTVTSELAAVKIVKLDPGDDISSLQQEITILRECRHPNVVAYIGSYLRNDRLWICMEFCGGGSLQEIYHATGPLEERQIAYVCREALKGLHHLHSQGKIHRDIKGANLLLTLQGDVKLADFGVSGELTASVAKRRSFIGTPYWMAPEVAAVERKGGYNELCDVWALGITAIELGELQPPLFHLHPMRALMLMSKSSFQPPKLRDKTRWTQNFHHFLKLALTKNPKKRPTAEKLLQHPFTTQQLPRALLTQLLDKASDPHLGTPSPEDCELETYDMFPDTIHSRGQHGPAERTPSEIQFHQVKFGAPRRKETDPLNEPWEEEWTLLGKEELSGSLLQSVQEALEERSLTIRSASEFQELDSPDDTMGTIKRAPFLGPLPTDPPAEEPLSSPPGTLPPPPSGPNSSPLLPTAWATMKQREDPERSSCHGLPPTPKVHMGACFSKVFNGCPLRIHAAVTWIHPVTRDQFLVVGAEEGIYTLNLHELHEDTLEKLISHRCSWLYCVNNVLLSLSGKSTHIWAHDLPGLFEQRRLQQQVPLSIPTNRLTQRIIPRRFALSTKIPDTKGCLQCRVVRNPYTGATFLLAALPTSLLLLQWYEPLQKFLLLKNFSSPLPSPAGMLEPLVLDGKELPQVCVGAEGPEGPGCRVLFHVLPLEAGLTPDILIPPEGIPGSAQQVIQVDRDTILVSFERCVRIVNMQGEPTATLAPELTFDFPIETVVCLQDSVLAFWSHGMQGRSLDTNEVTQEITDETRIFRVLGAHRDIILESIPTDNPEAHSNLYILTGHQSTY
Method: (§2) The inhibitory activities of the compounds of the present disclosure against two kinases, GCK and ACK1, were measured, and the IC50 values thereof were calculated.

ACK1 = ACK1 (Homo sapiens, UniProt Q07912); assay: Inhibitory activity against ACK1 kinase (IC50); type: biochemical
ACK1, sequence (Q07912 whole entry): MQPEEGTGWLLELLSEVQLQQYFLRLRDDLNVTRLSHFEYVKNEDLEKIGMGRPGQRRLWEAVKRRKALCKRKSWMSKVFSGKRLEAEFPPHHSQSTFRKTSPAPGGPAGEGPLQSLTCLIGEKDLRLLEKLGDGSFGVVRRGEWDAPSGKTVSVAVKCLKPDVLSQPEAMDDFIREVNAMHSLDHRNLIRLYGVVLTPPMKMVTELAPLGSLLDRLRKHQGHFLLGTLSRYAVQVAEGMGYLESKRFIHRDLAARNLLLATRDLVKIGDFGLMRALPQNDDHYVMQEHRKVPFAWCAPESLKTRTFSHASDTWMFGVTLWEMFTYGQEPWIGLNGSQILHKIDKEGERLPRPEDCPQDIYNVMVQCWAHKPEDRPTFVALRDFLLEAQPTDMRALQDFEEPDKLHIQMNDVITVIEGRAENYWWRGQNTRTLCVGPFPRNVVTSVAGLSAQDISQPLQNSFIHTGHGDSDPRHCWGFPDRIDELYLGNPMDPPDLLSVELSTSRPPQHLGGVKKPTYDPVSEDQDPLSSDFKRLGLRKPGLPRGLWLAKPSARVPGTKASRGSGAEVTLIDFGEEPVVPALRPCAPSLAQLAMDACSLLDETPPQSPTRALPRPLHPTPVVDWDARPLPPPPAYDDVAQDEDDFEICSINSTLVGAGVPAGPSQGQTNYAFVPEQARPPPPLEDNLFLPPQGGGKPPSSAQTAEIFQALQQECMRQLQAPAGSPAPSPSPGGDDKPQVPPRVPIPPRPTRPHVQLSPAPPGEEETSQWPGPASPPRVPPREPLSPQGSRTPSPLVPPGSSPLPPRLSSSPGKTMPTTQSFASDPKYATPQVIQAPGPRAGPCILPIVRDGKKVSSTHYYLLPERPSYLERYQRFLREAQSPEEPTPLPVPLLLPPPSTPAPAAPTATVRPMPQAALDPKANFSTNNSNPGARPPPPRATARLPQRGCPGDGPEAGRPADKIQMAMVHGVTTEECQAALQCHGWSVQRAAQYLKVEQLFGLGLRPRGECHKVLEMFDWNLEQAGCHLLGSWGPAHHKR
Method: as §2

GI50 (Ba/F3 (N-Ras G12D); Mus musculus, BaF3) [µM] | GI50 (OCI-AML3 (N-Ras Q61L); Homo sapiens, OCI-AML-3) [µM] | IC50 (GCK) [nM] | IC50 (ACK1) [nM] | Structure (SMILES) | GI50 (Ba/F3 (N-Ras G12D); Ba/F3 (N-Ras G12D)) [µM] | GI50 (OCI-AML3 (N-Ras Q61L); OCI-AML3 (N-Ras Q61L)) [µM]
0.5 to 3 | 0.5 to 3 | – | – | Cc1ccc(NC(=O)c2cccc(C(F)(F)F)c2)cc1-c1cc2cnc(NC3CC3)nc2c(=O)n1C [Compound No. 1, N-(3-(2-(cyclopropylamino)-7-methyl-8-oxo-7,8-dihydropyrido[3,4-d]pyrimidin-6-yl)-4-methylphenyl)-3-(trifluoromethyl)benzamide] | – | –
0.5 to 3 | 0.5 to 3 | – | – | Cc1ccc(NC(=O)c2cccc(C(F)(F)F)c2)cc1-c1cc2cnc(NCCO)nc2c(=O)n1C [Compound No. 2, N-(3-(2-((2-hydroxyethyl)amino)-7-methyl-8-oxo-7,8-dihydropyrido[3,4-d]pyrimidin-6-yl)-4-methylphenyl)-3-(trifluoromethyl)benzamide] | – | –
0.5 to 3 | 0.5 to 3 | – | – | Cc1ccc(NC(=O)c2cccc(C(F)(F)F)c2)cc1-c1cc2cnc(NCCN3CCOCC3)nc2c(=O)n1C [Compound No. 6, N-(4-methyl-3-(7-methyl-2-((2-morpholinoethyl)amino)-8-oxo-7,8-dihydropyrido[3,4-d]pyrimidin-6-yl)phenyl)-3-(trifluoromethyl)benzamide] | – | –
> 5 | > 5 | – | – | COc1ccc(CNc2ncc3cc(-c4cc(NC(=O)c5cccc(C(F)(F)F)c5)ccc4C)n(C)c(=O)c3n2)cc1 [Compound No. 10, N-(3-(2-((4-methoxybenzyl)amino)-7-methyl-8-oxo-7,8-dihydropyrido[3,4-d]pyrimidin-6-yl)-4-methylphenyl)-3-(trifluoromethyl)benzamide] | – | –
– | – | – | – | Cc1ccc(NC(=O)c2cccc(C(F)(F)F)c2)cc1-c1cc2cnc(NCCSCc3ccco3)nc2c(=O)n1C [Compound No. 11, N-(3-(2-((2-((furan-2-ylmethyl)thio)ethyl)amino)-7-methyl-8-oxo-7,8-dihydiropyrido[3,4-d]pyrimidin-6-yl)-4-methylphenyl)-3-(trifluoromethyl)benzamide] | > 5 | 3 to 5
> 5 | 0.5 to 3 | – | – | Cc1ccc(NC(=O)c2cccc(C(F)(F)F)c2)cc1-c1cc2cnc(N3CCOCC3)nc2c(=O)n1C [Compound No. 12, N-(4-methyl-3-(7-methyl-2-morpholino-8-oxo-7,8-dihydropyrido[3,4-d]pyrimidin-6-yl)phenyl)-3-(trifluoromethyl)benzamide] | – | –
< 0.5 | < 0.5 | 100 to 1000 | < 100 | Cc1ccc(Nc2ncc3cc(-c4cc(NC(=O)c5cccc(C(F)(F)F)c5)ccc4C)n(C)c(=O)c3n2)cn1 [Compound No. 13, N-(4-methyl-3-(7-methyl-2-((6-methylpyridin-3-yl)amino)-8-oxo-7,8-dihydropyrido[3,4-d]pyrimidin-6-yl)phenyl)-3-(trifluoromethyl)benzamide] | – | –
0.5 to 3 | 0.5 to 3 | – | – | Cc1ccc(NC(=O)c2cccc(C(F)(F)F)c2)cc1-c1cc2cnc(Nc3ccc(C(=O)N(C)C)cc3)nc2c(=O)n1C [Compound No. 15] | – | –
0.5 to 3 | < 0.5 | – | – | CCN1CCN(c2ccc(Nc3ncc4cc(-c5cc(NC(=O)c6cccc(C(F)(F)F)c6)ccc5C)n(C)c(=O)c4n3)cc2)CC1 [Compound No. 17, N-(3-(2-((4-(4-ethylpiperazin-1-yl)phenyl)amino)-7-methyl-8-oxo-7,8-dihydropyrido[3,4-d]pyrimidin-6-yl)-4-methylphenyl)-3-(trifluoromethyl)benzamide] | – | –
0.5 to 3 | 0.5 to 3 | – | – | Cc1ccc(NC(=O)c2cccc(C(F)(F)F)c2)cc1-c1cc2cnc(Nc3ccc(N4CCC(O)CC4)cc3)nc2c(=O)n1C [Compound No. 19, N-(3-(2-((4-(4-hydroxypiperidin-1-yl)phenyl)amino)-7-methyl-8-oxo-7,8-dihydropyrido[3,4-d]pyrimidin-6-yl)-4-methylphenyl)-3-(trifluoromethyl)benzamide] | – | –
> 5 | > 5 | – | – | COc1cc(N2CCOCC2)ccc1Nc1ncc2cc(-c3cc(NC(=O)c4cccc(C(F)(F)F)c4)ccc3C)n(C)c(=O)c2n1 [Compound No. 22, N-(3-(2-((2-methoxy-4-morpholinophenyl)amino)-7-methyl-8-oxo-7,8-dihydropyrido[3,4-d]pyrimidin-6-yl)-4-methylphenyl)-3-(trifluoromethyl)benzamide] | – | –
< 0.5 | < 0.5 | 100 to 1000 | < 100 | Cc1ccc(NC(=O)c2cccc(C(F)(F)F)c2)cc1-c1cc2cnc(NC3CC3)nc2c(=O)[nH]1 [Compound No. 53, N-(3-(2-(cyclopropylamino)-8-oxo-7,8-dihydropyrido[3,4-d]pyrimidin-6-yl)-4-methylphenyl)-3-(trifluoromethyl)benzamide] | – | –
0.5 to 3 | < 0.5 | – | – | Cc1ccc(Nc2ncc3cc(-c4cc(NC(=O)c5cccc(C(F)(F)F)c5)ccc4C)[nH]c(=O)c3n2)cn1 [Compound No. 54, N-(4-methyl-3-(2-((6-methylpyridin-3-yl)amino)-8-oxo-7,8-dihydropyrido[3,4-d]pyrimidin-6-yl)phenyl)-3-(trifluoromethyl)benzamide] | – | –

From patent US20260070903A1, “NOVEL PYRIDO[3,4-D]PYRIMIDIN-8-ONE DERIVATIVE HAVING PROTEIN KINASE INHIBITORY ACTIVITY, AND PHARMACEUTICAL COMPOSITION FOR PREVENTING, ALLEVIATING, OR TREATING CANCER, COMPRISING SAME” (KOREA INSTITUTE OF SCIENCE AND TECHNOLOGY, priority 2019, published 2026)
